From US20260042753A1 (Merck Patent GmbH, priority 2019, published 2026) come the findings set out here.

Assay [1] deals with c-Kit(V654A) (Homo sapiens, UniProt P10721, V654A). The assay is described as follows: c-Kit(V654A) assay. It counts as biochemical. The method, boiled down:
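Radiometric filter-binding read-out: after 3% phosphoric acid stop, peptide-incorporated 33P on filtermat scintillation-counted. Enzyme: human c-Kit V654A, residues 544–end, N-terminal GST fusion.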

In assay [2] the target is mutant cKIT (560-576 and V654A) in GIST430/654 cell line (Homo sapiens (Human), UniProt P10721, DEL560-576/V654A). The experiment in a line: Cellular testing of cKIT mutant inhibitors: phospho-Y307-cKIT Luminex assay in GIST430/654 cells. It counts as cell-based. The settings on record: read-out: GIST 430/654 IC50. The method, boiled down: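 Autophosphorylation of mutant cKIT at Y307 was quantified by a Luminex bead sandwich assay (total-cKIT capture, phosphospecific detection) after 45 min compound exposure in GIST430/654 cells, cultured in medium containing 100 nM imatinib. Signals were normalised to solvent (0.3% DMSO) controls and dose-response curves fitted for IC50.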

[3] abbreviates: Table 1, cKIT autophosphorylation, compounds 45 min.
[4] abbreviates: Table 2, corresponding triazole derivatives.

SMILES strings stand for the structures. pIC50: −log10 of the molar value. Where two headings read alike, the source gives them in different places.

Sequence of mutant cKIT (560-576 and V654A) in GIST430/654 cell line (P10721 other isoform, or with tags, fused parts or gaps V654A/del 1-25/del 560-576 limits assumed): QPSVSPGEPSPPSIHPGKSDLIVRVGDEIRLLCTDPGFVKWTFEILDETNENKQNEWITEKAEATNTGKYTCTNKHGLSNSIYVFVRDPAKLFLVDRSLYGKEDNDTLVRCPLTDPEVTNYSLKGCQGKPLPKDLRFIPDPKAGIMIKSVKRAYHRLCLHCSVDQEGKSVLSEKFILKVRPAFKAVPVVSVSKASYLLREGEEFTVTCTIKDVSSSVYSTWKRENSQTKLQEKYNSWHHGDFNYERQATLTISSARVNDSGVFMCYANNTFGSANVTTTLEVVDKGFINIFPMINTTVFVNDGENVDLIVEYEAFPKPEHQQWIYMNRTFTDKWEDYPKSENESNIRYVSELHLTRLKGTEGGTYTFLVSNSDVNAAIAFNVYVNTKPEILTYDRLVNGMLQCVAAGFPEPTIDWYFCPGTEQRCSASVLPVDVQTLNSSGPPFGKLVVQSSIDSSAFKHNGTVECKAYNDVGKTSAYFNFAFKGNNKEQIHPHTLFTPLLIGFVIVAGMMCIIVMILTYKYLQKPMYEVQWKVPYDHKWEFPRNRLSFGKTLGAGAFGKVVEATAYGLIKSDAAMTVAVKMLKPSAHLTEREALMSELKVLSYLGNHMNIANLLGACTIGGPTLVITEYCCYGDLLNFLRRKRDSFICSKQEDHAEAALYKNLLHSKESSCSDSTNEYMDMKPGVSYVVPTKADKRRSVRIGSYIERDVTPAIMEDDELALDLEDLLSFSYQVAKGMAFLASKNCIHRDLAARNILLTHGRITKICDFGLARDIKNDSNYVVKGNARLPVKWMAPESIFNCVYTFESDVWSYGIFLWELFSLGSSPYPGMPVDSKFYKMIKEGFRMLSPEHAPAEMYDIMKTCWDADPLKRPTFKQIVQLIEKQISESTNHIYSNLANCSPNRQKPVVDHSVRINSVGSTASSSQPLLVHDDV

Turning to `COCCOc1cc2[nH]nc(-c3cc(-c4ccc(C(=O)N5CCCN(C6COC6)CC5)cc4)no3)c2cc1F` [A198, 5-fluoro-6-(2-methoxyethoxy)-3-(3-{4-[4-(oxetan-3-yl)-1,4-diazepane-1-carbonyl]phenyl}-1,2-oxazol-5-yl)-1H-indazole], the pIC50 in assay [1] (Table 1, 200 μM ATP) is 9.04; in assay [2] (setting [3]), 7.14.
Take `COCCOc1cc2[nH]nc(-c3cc(-c4ccc(C(=O)N5CC(c6cncnc6)C5)cc4)no3)c2cc1F` [A212, 5-fluoro-6-(2-methoxyethoxy)-3-(3-{4-[3-(pyrimidin-5-yl)azetidine-1-carbonyl]phenyl}-1,2-oxazol-5-yl)-1H-indazole]: the pIC50 was 9.23 in assay [1] (Table 1, 200 μM ATP) and 7.39 in assay [2] (setting [3]).
In the same order, the values of `COCCOc1cc2[nH]nc(-c3cc(-c4ccc(C(=O)N5CC[C@H]5CO)cc4)no3)c2cc1F` [A95, [(2S)-1-(4-{5-[5-fluoro-6-(2-methoxyethoxy)-1H-indazol-3-yl]-1,2-oxazol-3-yl}benzoyl)azetidin-2-yl]methanol] are 9.04 and 7.43.
The corresponding values for `C[C@H]1CN(C)CCN1C(=O)c1ccc(-c2cc(-c3n[nH]c4cc(C(F)(F)F)ccc34)on2)cc1` [A50, 3-(3-{4-[(2S)-2,4-dimethylpiperazine-1-carbonyl]phenyl}-1,2-oxazol-5-yl)-6-(trifluoromethyl)-1H-indazole] are 7.85 and 6.14.
In the same order, the values of `COCCOc1cc2[nH]nc(-c3cc(-c4ccc(C(=O)N5CC(C#N)C5)nc4)no3)c2cc1F` [A96, 1-(5-{5-[5-fluoro-6-(2-methoxy-ethoxy)-1H-indazol-3-yl]-isoxazol-3-yl}-pyridine-2-carbonyl)-azetidine-3-carbonitrile] are 7.68 and 6.13.
For `COCCOc1cc2[nH]nc(-c3cc(-c4ccc(C(=O)N5CCN(C)C(=O)C5)cc4)no3)c2cc1F` [A116, 4-(4-{5-[5-fluoro-6-(2-methoxyethoxy)-1H-indazol-3-yl]-1,2-oxazol-3-yl}benzoyl)-1-methylpiperazin-2-one], the pIC50 in assay [1] (Table 1, 200 μM ATP) was 8.39; in assay [2] (setting [3]), 6.92.
As for `COCCOc1cc2[nH]nc(-c3cc(-c4ccc(C(=O)N5CC(n6ccnc6)C5)cc4)no3)c2cc1F` [A85, 5-fluoro-3-(3-{4-[3-(1H-imidazol-1-yl)azetidine-1-carbonyl]phenyl}-1,2-oxazol-5-yl)-6-(2-methoxyethoxy)-1H-indazole], the pIC50 in assay [1] (Table 1, 200 μM ATP) is 9.20; in assay [2] (setting [3]), 6.89.
Regarding `COCCOc1cc2[nH]nc(-c3cc(-c4ccc(C(=O)N5CC(N6CCOCC6)C5)cn4)no3)c2cc1F` [A82, 5-fluoro-6-(2-methoxyethoxy)-3-(3-{5-[3-(morpholin-4-yl)azetidine-1-carbonyl]pyridin-2-yl}-1,2-oxazol-5-yl)-1H-indazole], the pIC50 in assay [1] (Table 1, 200 μM ATP) is 8.01; in assay [2] (setting [3]), 6.38.
In the same order, the values of `CC(C)(O)[C@@H]1CCCN1C(=O)c1ccc(-c2cc(-c3n[nH]c4cc(Br)ccc34)on2)cc1` [A4, {4-[5-(6-bromo-1H-indazol-3-yl)-isoxazol-3-yl]-phenyl}-[(S)-2-(1-hydroxy-1-methyl-ethyl)-pyrrolidin-1-yl]-methanone] are 7.89 and 6.48.
In the case of `COCCOc1cc2[nH]nc(-c3cc(-c4ccc(C(=O)N5CC[C@@H]5C(C)(C)O)cc4)on3)c2cc1F` [A147, (4-{3-[5-fluoro-6-(2-methoxy-ethoxy)-1H-indazol-3-yl]-isoxazol-5-yl}-phenyl)-[(R)-2-(1-hydroxy-1-methyl-ethyl)-azetidin-1-yl]-methanone], the pIC50 in assay [1] (Table 1, 200 μM ATP) is 8.66; in assay [2] (setting [3]), 7.17.
The corresponding values for `COc1cc2[nH]nc(-c3cc(-c4ccc(C(=O)N5CCC[C@H]5CS(C)(=O)=O)cc4)no3)c2cc1F` [A117, 5-fluoro-3-(3-{4-[(2S)-2-(methanesulfonylmethyl)pyrrolidine-1-carbonyl]phenyl}-1,2-oxazol-5-yl)-6-methoxy-1H-indazole] are 8.44 and 7.00.
In the case of `COCCOc1cc2[nH]nc(-c3cc(-c4ccc(C(=O)N5CC6(COC6)C5)cc4)no3)c2cc1F` [A74, 5-fluoro-6-(2-methoxyethoxy)-3-[3-(4-{2-oxa-6-azaspiro[3.3]heptane-6-carbonyl}phenyl)-1,2-oxazol-5-yl]-1H-indazole], the pIC50 was 8.89 in assay [1] (Table 1, 200 μM ATP) and 7.28 in assay [2] (setting [3]).
In the case of `COCCOc1cc2[nH]nc(-c3cc(-c4ccc(C(=O)N5CC(N6CCO[C@H](C)C6)C5)cc4)no3)c2cc1F` [A211, 5-fluoro-6-(2-methoxyethoxy)-3-[3-(4-{3-[(2R)-2-methylmorpholin-4-yl]azetidine-1-carbonyl}phenyl)-1,2-oxazol-5-yl]-1H-indazole], the pIC50 was 8.89 in assay [1] (Table 1, 200 μM ATP) and 7.41 in assay [2] (setting [3]).
The corresponding values for `COCCOc1cc2[nH]nc(-c3cc(-c4ccc(C5CCNCC5(C)C)cc4)no3)c2cc1F` (stereo not drawn) [A230, 3-{3-[4-(3,3-dimethyl-piperidin-4-yl)-phenyl]-isoxazol-5-yl}-5-fluoro-6-(2-methoxy-ethoxy)-1H-indazole] are 9.40 and 6.96.
In the same order, the values of `COCCOc1cc2[nH]nc(-c3cc(-c4ccc(N5CCC(O)CC5)cc4)no3)c2cc1F` [A128, 1-(4-{5-[5-fluoro-6-(2-methoxyethoxy)-1H-indazol-3-yl]-1,2-oxazol-3-yl}phenyl)piperidin-4-ol] are 9.10 and 7.00.
As to `COCCOc1cc2[nH]nc(-c3cc(-c4ccc(C(=O)N5CC(OC)C5)cc4)no3)c2cc1F` [A33, 5-fluoro-3-{3-[4-(3-methoxyazetidine-1-carbonyl)phenyl]-1,2-oxazol-5-yl}-6-(2-methoxyethoxy)-1H-indazole], the pIC50 is 8.89 in assay [1] (Table 1, 200 μM ATP) and 7.21 in assay [2] (setting [3]).
The corresponding values for `COCCOc1cc2[nH]nc(-c3cc(-c4ccc(C(=O)N5CC(c6cccnc6)C5)cc4)no3)c2cc1F` [A192, 5-fluoro-6-(2-methoxyethoxy)-3-(3-{4-[3-(pyridin-3-yl)azetidine-1-carbonyl]phenyl}-1,2-oxazol-5-yl)-1H-indazole] are 9.35 and 7.85.
In the case of `COCCOc1cc2[nH]nc(-c3cn(-c4ccc(C(=O)N5CC(C#N)C5)cc4)nn3)c2cc1F` [reference compound], the pIC50 is 7.89 in assay [1] (setting [4]) and 5.66 in assay [2] (setting [4]).
Consider `COCCOc1cc2[nH]nc(-c3cc(-c4ccc(C(=O)N5CCOCC5)cc4)no3)c2cc1F` [A104, 5-fluoro-6-(2-methoxyethoxy)-3-{3-[4-(morpholine-4-carbonyl)phenyl]-1,2-oxazol-5-yl}-1H-indazole], for which the pIC50 in assay [1] (Table 1, 200 μM ATP) is 9.10; in assay [2] (setting [3]), 7.24.
The corresponding values for `COCCOc1cc2[nH]nc(-c3cc(-c4ccc(C(=O)N5CCOC[C@H]5COC)cc4)no3)c2cc1F` [A111, 5-fluoro-6-(2-methoxyethoxy)-3-(3-{4-[(3R)-3-(methoxymethyl)morpholine-4-carbonyl]phenyl}-1,2-oxazol-5-yl)-1H-indazole] are 8.92 and 7.21.
Turning to `COCCOc1cc2[nH]nc(-c3cc(-c4ccc(C(=O)N5CC(c6ccncn6)C5)cc4)no3)c2cc1F` [A172, 5-fluoro-6-(2-methoxyethoxy)-3-(3-{4-[3-(pyrimidin-4-yl)azetidine-1-carbonyl]phenyl}-1,2-oxazol-5-yl)-1H-indazole], the pIC50 in assay [1] (Table 1, 200 μM ATP) was 9.05; in assay [2] (setting [3]), 7.27.
The corresponding values for `COCCOc1cc2[nH]nc(-c3cc(-c4ccc(C(=O)N5CC(n6cccn6)C5)cc4)no3)c2cc1F` [A75, 5-fluoro-6-(2-methoxyethoxy)-3-(3-{4-[3-(1H-pyrazol-1-yl)azetidine-1-carbonyl]phenyl}-1,2-oxazol-5-yl)-1H-indazole] are 8.85 and 7.23.
In the same order, the values of `COCCOc1cc2[nH]nc(-c3cc(-c4ccc(C(=O)N5CC(N6CC(F)C6)C5)cc4)no3)c2cc1F` [A101, 5-fluoro-3-[3-(4-{3-fluoro-[1,3′-biazetidine]-1′-carbonyl}phenyl)-1,2-oxazol-5-yl]-6-(2-methoxyethoxy)-1H-indazole] are 9.03 and 6.80.
Take `COCCOc1cc2[nH]nc(-c3cc(-c4ccc(C(=O)N5C[C@@H]6CN(C7COC7)C[C@@H]6C5)cc4)no3)c2cc1F` [A216, 3-(3-{4-[(cis)-5-(oxetan-3-yl)-octahydropyrrolo[3,4-c]pyrrole-2-carbonyl]phenyl}-1,2-oxazol-5-yl)-5-fluoro-6-(2-methoxyethoxy)-1H-indazole]: the pIC50 was 8.96 in assay [1] (Table 1, 200 μM ATP) and 7.57 in assay [2] (setting [3]).
With `COCCOc1cc2[nH]nc(-c3cc(-c4ccc(C(=O)N5CC(F)C5)nc4)no3)c2cc1F` [A98, (3-fluoro-azetidin-1-yl)-(5-{5-[5-fluoro-6-(2-methoxy-ethoxy)-1H-indazol-3-yl]-isoxazol-3-yl}-pyridin-2-yl)-methanone], the pIC50 in assay [1] (Table 1, 200 μM ATP) was 7.82; in assay [2] (setting [3]), 6.07.
In the same order, the values of `COCCOc1cc2[nH]nc(-c3cc(-c4ccc(C(=O)N5C[C@H]6COCC[C@H]6C5)cc4)no3)c2cc1F` (relative stereo) [A214, 3-(3-{4-[(cis)-octahydropyrano[3,4-c]pyrrole-2-carbonyl]phenyl}-1,2-oxazol-5-yl)-5-fluoro-6-(2-methoxyethoxy)-1H-indazole] are 9.36 and 7.43.
In the same order, the values of `COCCOc1cc2[nH]nc(-c3cc(-c4ccc(C(=O)N5CCN(C6COC6)CC5)c(C)c4)no3)c2cc1F` [A193, (4-{5-[5-fluoro-6-(2-methoxy-ethoxy)-1H-indazol-3-yl]-isoxazol-3-yl}-2-methyl-phenyl)-(4-oxetan-3-yl-piperazin-1-yl)-methanone] are 8.60 and 7.14.
